For 25 molecules, EC50 and Emax results are on record in US8173645B2 (Takeda San Diego, Inc., priority 2007, dated 2012).

Bounds are passed on as bounds.

For the assay, the target named is T1, glucokinase (GK), residues 12-465 of the human enzyme (Homo sapiens, UniProt P35557).
T1 construct: I.D. No. 1 corresponds to residues 12-465 of glucokinase; made in house; host or cells: E. coli DH10b-Tlr
T1 sequence (P35557 with tags, fused parts or gaps isoform P35557-2): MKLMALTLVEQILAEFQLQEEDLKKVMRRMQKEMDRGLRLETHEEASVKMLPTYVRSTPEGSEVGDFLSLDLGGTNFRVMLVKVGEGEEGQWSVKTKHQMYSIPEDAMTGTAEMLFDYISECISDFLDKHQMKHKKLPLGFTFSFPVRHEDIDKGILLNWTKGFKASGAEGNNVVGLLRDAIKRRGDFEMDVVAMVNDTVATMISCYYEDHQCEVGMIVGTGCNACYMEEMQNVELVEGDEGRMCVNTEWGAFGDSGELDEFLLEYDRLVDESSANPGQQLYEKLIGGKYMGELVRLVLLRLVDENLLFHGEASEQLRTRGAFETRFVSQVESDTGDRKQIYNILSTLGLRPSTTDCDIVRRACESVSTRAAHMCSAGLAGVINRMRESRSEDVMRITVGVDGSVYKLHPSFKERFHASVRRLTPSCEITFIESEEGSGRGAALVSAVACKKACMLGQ
Put plainly: Enzymatic glucokinase activity assay (KinaseGlo luminescence, ATP consumption). The note with it: 5 μM ATP, 5 mM Glucose; for EC50: GK activation, Kact = concentration giving 50% of the maximal increase in GK activity, read-out: pKact; for Emax: calculated maximal gain in GK enzyme activity at a saturating concentration of the compound, read-out: % ACTmax. It is filed as biochemical. An outline of the steps: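 Activation measured as ATP consumption: residual ATP detected by KinaseGlo luminescence after 60 min at room temperature with 5 μM ATP and 5 mM glucose (Hepes pH 7.2, MgCl2, Brij35, DTT, 2% DMSO). Enzyme was recombinant FLAG-tagged protein from E. coli. Eleven-point twofold series were fitted nonlinearly for pKact and % ACTmax.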

With `NC(=O)Nc1ccc(S(=O)(=O)N2CCN([C@@H](CC3CCCCC3)C(=O)Nc3nccs3)C(=O)C2)cc1` [Example 64, (S)-3-cyclohexyl-2-(2-oxo-4-(4-ureidophenylsulfonyl)piperazin-1-yl)-N-(thiazol2-yl)propanamide], the EC50 was at least 3.16 µM and the Emax was 97.1 to 107%.
The corresponding values for `Cn1ccc(S(=O)(=O)N2CCN([C@@H](CC3CCCCC3)C(=O)Nc3nccs3)C(=O)C2)n1` [Example 112, (S)-3-cyclohexyl-2-(4-(1-methyl-1H-pyrazol-3-ylsulfonyl)-2-oxopiperazin-1-yl)-N-(thiazol-2-yl)propanamide] are at most 0.631 µM and 108 to 119%.
As to `COc1ccc2nc(NC(=O)C(CC3CCOCC3)N3CCN(S(=O)(=O)C4CCCC4)CC3=O)sc2n1` (centres unmarked) [Example 29, 2-(4-(cyclopentylsulfonyl)-2-oxopiperazin-1-yl)-N-(5-methoxythiazolo[5,4-b]pyridin-2-yl)-3-(tetrahydro-2H-pyran-4-yl)propanamide], the EC50 was 0.794 to 1.26 µM and the Emax was 108 to 119%.
Consider `CN1CCOc2cc(S(=O)(=O)N3CCN([C@@H](CC4CCCCC4)C(=O)Nc4nccs4)C(=O)C3)ccc21` [Example 44, (S)-3-cyclohexyl-2-(4-(4-methyl-3,4-dihydro-2H-benzo[b][1,4]oxazin-7-ylsulfonyl)-2-oxopiperazin-1-yl)-N-(thiazol-2-yl)propanamide], for which the EC50 is at most 0.631 µM and the Emax is 97.1 to 107%.
Consider `O=C(O)c1cccc(S(=O)(=O)N2CCN([C@@H](CC3CCCCC3)C(=O)Nc3nccs3)C(=O)C2)c1` [Example 49, (S)-3-(4-(3-cyclohexyl-1-oxo-1-(thiazol-2-ylamino)propan-2-yl)-3-oxopiperazin-1-ylsulfonyl)benzoic acid], for which the EC50 is at least 3.16 µM and the Emax was 74.1 to 97%.
For `O=C(Nc1nccs1)[C@H](CC1CCCCC1)N1CCN(S(=O)(=O)c2ccc(-c3cnco3)s2)CC1=O` [Example 161, (S)-3-cyclohexyl-2-(4-(5-(oxazol-5-yl)thiophen-2-ylsulfonyl)-2-oxopiperazin-1-yl)-N-(thiazol-2-yl)propanamide], the EC50 was in the range of 1.58 to 2.51 µM and the Emax is 97.1 to 107%.
Taken in the same sequence, the figures for `O=C(Nc1nccs1)[C@H](CC1CCCCC1)N1CCN(S(=O)(=O)c2cccc(F)c2)CC1=O` [Example 61, (S)-3-cyclohexyl-2-(4-(3-fluorophenylsulfonyl)-2-oxopiperazin-1-yl)-N-(thiazol-2-yl)propanamide] were at most 0.631 µM and 108 to 119%.
With `CC(C)C[C@@H](C(=O)Nc1ncc(F)s1)N1CCN(S(=O)(=O)C2CC2)CC1=O` [Example 11, (S)-2-(4-(cyclopropylsulfonyl)-2-oxopiperazin-1-yl)-N-(5-fluorothiazol-2-yl)-4-methylpentanamide], the EC50 lay within 0.794 to 1.26 µM and the Emax was at least 119%.
The corresponding values for `COc1ccc(S(=O)(=O)N2CCN([C@@H](CC3CCCCC3)C(=O)Nc3nccs3)C(=O)C2)cc1` [Example 46, (S)-3-cyclohexyl-2-(4-(4-methoxyphenylsulfonyl)-2-oxopiperazin-1-yl)-N-(thiazol-2-yl)propanamide] are 0.794 to 1.26 µM and 97.1 to 107%.
Taken in the same sequence, the figures for `O=C(Nc1ncc(Cl)s1)C(CC1CCOCC1)N1CCN(S(=O)(=O)c2cccc(F)c2)CC1=O` (centres unmarked) [Example 147, N-(5-chlorothiazol-2-yl)-2-(4-(3-fluorophenylsulfonyl)-2-oxopiperazin-1-yl)-3-(tetrahydro-2H-pyran-4-yl)propanamide] were 0.794 to 1.26 µM and 108 to 119%.
For `O=C(Nc1nccs1)[C@H](CC1CCCCC1)N1CCN(S(=O)(=O)c2cc(F)cc(F)c2)CC1=O` [Example 105, (S)-3-cyclohexyl-2-(4-(3,5-difluorophenylsulfonyl)-2-oxopiperazin-1-yl)-N-(thiazol-2-yl)propanamide], the EC50 is at most 0.631 µM and the Emax was 97.1 to 107%.
As for `O=C(c1cccc(S(=O)(=O)N2CCN([C@@H](CC3CCCCC3)C(=O)Nc3nccs3)C(=O)C2)c1)c1ccccn1` [Example 178, (S)-3-cyclohexyl-2-(2-oxo-4-(3-picolinoylphenylsulfonyl)piperazin-1-yl)-N-(thiazol-2-yl)propanamide], the EC50 is 0.794 to 1.26 µM and the Emax was 74.1 to 97%.
Taken in the same sequence, the figures for `O=C(Nc1nccs1)[C@H](CC1CCCCC1)N1CCN(S(=O)(=O)c2cccc(OC(F)F)c2)CC1=O` [Example 106, (S)-3-cyclohexyl-2-(4-(3-(difluoromethoxy)phenylsulfonyl)-2-oxopiperazin-1-yl)-N-(thiazol-2-yl)propanamide] were 0.794 to 1.26 µM and 108 to 119%.
As to `COC(=O)c1cc(C)c(S(=O)(=O)N2CCN([C@@H](CC3CCCCC3)C(=O)Nc3nccs3)C(=O)C2)s1` [Example 157, (S)-methyl 5-(4-(3-cyclohexyl-1-oxo-1-(thiazol-2-ylamino)propan-2-yl)-3-oxopiperazin-1-ylsulfonyl)-4-methylthiophene-2-carboxylate], the EC50 fell in the range of 1.58 to 2.51 µM and the Emax was at most 74%.
With `O=C(Nc1ncc(Cl)s1)C(CC1CCOCC1)N1CCN(S(=O)(=O)c2ccc(F)cc2)CC1=O` (centres unmarked) [Example 33, N-(5-chlorothiazol-2-yl)-2-(4-(4-fluorophenylsulfonyl)-2-oxopiperazin-1-yl)-3-(tetrahydro-2H-pyran-4-yl)propanamide], the EC50 was 0.794 to 1.26 µM and the Emax is at least 119%.
As for `O=C(Nc1nccs1)[C@H](CC1CCCCC1)N1CCN(S(=O)(=O)C2CCCC2)CC1=O` [Example 113, (S)-3-cyclohexyl-2-(4-(cyclopentylsulfonyl)-2-oxopiperazin-1-yl-N-thiazol-2-yl)propanamide], the EC50 was at most 0.631 µM and the Emax was at least 119%.
Taken in the same sequence, the figures for `Cc1nccc(-c2cccc(S(=O)(=O)N3CCN([C@@H](CC4CCCCC4)C(=O)Nc4nccs4)C(=O)C3)c2)n1` [Example 169, (S)-3-cyclohexyl-2-(4-(3-(2-methylpyrimidin-4-yl)phenylsulfonyl)-2-oxopiperazin-1-yl)-N-(thiazol-2-yl)propanamide] were 0.794 to 1.26 µM and 97.1 to 107%.
With `O=C(Nc1nccs1)[C@H](CC1CCCCC1)N1CCN(S(=O)(=O)c2cccc3nsnc23)CC1=O` [Example 171, (S)-2-(4-(benzo[c][1,2,5]thiadiazol-4-ylsulfonyl)-2-oxopiperazin-1-yl)-3-cyclohexyl-N-(thiazol-2-yl)propanamide], the EC50 was in the range of 0.794 to 1.26 µM and the Emax is 97.1 to 107%.
Regarding `COC(=O)c1cc(S(=O)(=O)N2CCN([C@@H](CC3CCCCC3)C(=O)Nc3nccs3)C(=O)C2)oc1C` [Example 159, (S)-methyl 5-(4-(3-cyclohexyl-1-oxo-1-(thiazol-2-ylamino)propan-2-yl)-3-oxopiperazin-1-ylsulfonyl)-2-methylfuran-3-carboxylate], the EC50 is 0.794 to 1.26 µM and the Emax was 97.1 to 107%.
As for `O=C(Nc1nccs1)[C@H](CC1CCCCC1)N1CCN(C(=S)NC2CCCCC2)CC1=O` [Example 114, (S)-3-cyclohexyl-2-(4-(cyclohexylcarbamothioyl)-2-oxopiperazin-1-yl)-N-(thiazol-2-yl)propanamide], the EC50 fell in the range of 1.58 to 2.51 µM and the Emax is 97.1 to 107%.
Taken in the same sequence, the figures for `O=C(Nc1nccs1)[C@H](CC1CCCCC1)N1CCN(S(=O)(=O)c2ccc(Cl)c(Cl)c2Cl)CC1=O` [Example 220, (S)-3-cyclohexyl-2-(2-oxo-4-(2,3,4-trichlorophenylsulfonyl)piperazin-1-yl)-N-(thiazol-2-yl)propanamide] were 0.794 to 1.26 µM and at most 74%.
For `O=C(Nc1nccs1)[C@H](CC1CCCCC1)N1CCN(S(=O)(=O)c2ccc(F)c(F)c2)CC1=O` [Example 103, (S)-3-cyclohexyl-2-(4-(3,4-difluorophenylsulfonyl)-2-oxopiperazin-1-yl)-N-(thiazol-2-yl)propanamide], the EC50 is at most 0.631 µM and the Emax is 108 to 119%.
As for `O=C(Nc1nccs1)[C@H](CC1CCCCC1)N1CCN(S(=O)(=O)c2ccc(Cl)cc2)CC1=O` [Example 43, (S)-2-(4-(4-chlorophenylsulfonyl)-2-oxopiperazin-1-yl)-3-cyclohexyl-N-(thiazol-2-yl)propanamide], the EC50 lay in the range of 0.794 to 1.26 µM and the Emax is 74.1 to 97%.
As for `O=C(c1ccncc1)c1cccc(S(=O)(=O)N2CCN([C@@H](CC3CCCCC3)C(=O)Nc3nccs3)C(=O)C2)c1` [Example 179, (S)-3-cyclohexyl-2-(4-(3-isonicotinoylphenylsulfonyl)-2-oxopiperazin-1-yl)-N-(thiazol-2-yl)propanamide], the EC50 was in the range of 0.794 to 1.26 µM and the Emax is 108 to 119%.
Consider `Cc1ccc(S(=O)(=O)N2CCN([C@@H](CC3CCCCC3)C(=O)Nc3nccs3)C(=O)C2)cc1Cl` [Example 94, (S)-2-(4-(3-chloro-4-methylphenylsulfonyl)-2-oxopiperazin-1-yl)-3-cyclohexyl-N-(thiazol-2-yl)propanamide], for which the EC50 lay within 0.794 to 1.26 µM and the Emax is 108 to 119%.
